Reference: US20260317324A1, “BIFUNCTIONAL COMPOUNDS FOR DEGRADING BRAF VIA UBIQUITIN PROTEOSOME PATHWAY” (Nurix Therapeutics, Inc., priority 2023, published 2026)

Biological target: T1, BRAF V600E (Homo sapiens, UniProt P15056, V600E)
T1 construct: endogenous C-terminal HiBiT fusion tag on BRAF V600E allele; endogenous in cells; host or cells: A375 clone 1F10 (CRISPR-Cas9 knock-in of the HiBiT tag; parental A375 from ATCC)
Assay: BRAF HiBiT degradation assay, C-terminal HiBiT-tagged BRAF V600E A375 cells (clone 1F10), Nano-Glo HiBiT Lytic assay
Assay type: cell-based
Settings: for Dmax: A-375
How it was run: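 A375 cells with CRISPR knock-in C-terminal HiBiT on endogenous BRAF V600E (clone 1F10) were seeded and cultured 24 h at 37 °C, then dosed with an 11-point half-log series (1 μM to 0.01 nM, duplicate, 0.2% DMSO). Lytic HiBiT luminescence gave % protein remaining; DC50 was the fitted concentration at 50%.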

[1] = A375 (BRAF V600E), DC50 at 50%: fitted conc. at Y=50
[2] = A375 (BRAF V600E), percentage protein degraded at maximal compound effect relative to DMSO
[3] = A375 (BRAF V600E, Class 1), DC50 at 50% degradation
[4] = A375 (BRAF V600E, Class 1), observed Dmax, % protein degraded relative to DMSO control

T1 sequence (P15056 whole entry V600E, the tested form may be a part): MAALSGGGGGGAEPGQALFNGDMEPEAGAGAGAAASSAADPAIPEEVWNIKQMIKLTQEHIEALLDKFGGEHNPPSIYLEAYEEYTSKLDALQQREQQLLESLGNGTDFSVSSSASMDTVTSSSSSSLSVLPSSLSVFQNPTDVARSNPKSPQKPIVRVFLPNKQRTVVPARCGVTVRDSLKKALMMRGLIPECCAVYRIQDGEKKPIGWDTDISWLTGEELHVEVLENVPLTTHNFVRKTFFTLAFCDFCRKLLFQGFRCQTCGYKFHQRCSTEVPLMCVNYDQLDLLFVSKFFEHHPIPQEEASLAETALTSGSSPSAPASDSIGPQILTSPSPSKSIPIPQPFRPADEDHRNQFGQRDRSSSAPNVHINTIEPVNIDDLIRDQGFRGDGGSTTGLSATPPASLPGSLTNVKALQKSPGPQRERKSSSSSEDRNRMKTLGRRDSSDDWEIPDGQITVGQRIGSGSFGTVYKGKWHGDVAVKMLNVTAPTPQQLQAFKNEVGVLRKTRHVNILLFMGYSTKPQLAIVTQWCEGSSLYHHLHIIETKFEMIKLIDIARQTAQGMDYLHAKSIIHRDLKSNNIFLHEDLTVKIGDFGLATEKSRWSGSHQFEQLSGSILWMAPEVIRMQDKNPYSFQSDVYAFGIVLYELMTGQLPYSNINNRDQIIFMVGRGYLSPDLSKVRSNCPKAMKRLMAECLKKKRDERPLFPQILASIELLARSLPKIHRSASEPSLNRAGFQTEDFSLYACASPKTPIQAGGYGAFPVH

Structure (SMILES)	DC50 [1]	Dmax [2]	DC50 [3]	Dmax [4]
CCCS(=O)(=O)Nc1cccc(-c2nc(C3CCN(C(=O)C4CN(C5CCN(c6ccc7c(c6)C(=O)N(C6CCC(=O)NC6=O)C7=O)CC5)C4)CC3)sc2-c2ccnc(N)n2)c1F (racemic) [Compound 242, Rac-N-{3-[5-(2-aminopyrimidin-4-yl)-2-{1-[1-(1-{2-[(3R)-2,6-dioxopiperidin-3-yl]-1,3-dioxo-2,3-dihydro-1H-isoindol-5-yl}piperidin-4-yl)azetidine-3-carbonyl]piperidin-4-yl}-1,3-thiazol-4-yl]-2-fluorophenyl}propane-1-sulfonamide]	< 0.01 µM	> 70%	–	–
CCCS(=O)(=O)Nc1cccc(-c2cn(-c3ccc(C(=O)N4CCN(C(=O)C5CCN(c6ccc(C7CCC(=O)NC7=O)cc6)CC5)CC4)cc3)nc2-c2ccncc2)c1F (racemic) [Compound 14, Rac-N-[3-(1-{4-[4-(1-{4-[(3R)-2,6-dioxopiperidin-3-yl]phenyl}piperidine-4-carbonyl)piperazine-1-carbonyl]phenyl}-3-(pyridin-4-yl)-1H-pyrazol-4-yl)-2-fluorophenyl]propane-1-sulfonamide]	0.05 to 0.5 µM	30 to 70%	–	–
O=C1CC[C@H](c2ccc(N3CCC(CN4CCN(c5ccc(-n6cc(-c7cc(F)cc(NS(=O)(=O)N8CCCC8)c7F)c(-c7ccncc7)n6)c(F)c5)CC4)CC3)cc2)C(=O)N1 [Compound 340, N-{3-[1-(4-{4-[(1-{4-[(3R)-2,6-dioxopiperidin-3-yl]phenyl}piperidin-4-yl)methyl]piperazin-1-yl}-2-fluorophenyl)-3-(pyridin-4-yl)-1H-pyrazol-4-yl]-2,5-difluorophenyl}pyrrolidine-1-sulfonamide]	–	–	< 0.01 µM	> 70%
CCCS(=O)(=O)Nc1cccc(-c2nc(C(C)(C)C)sc2-c2ccnc(NC3CC4(C3)CN(C(=O)CC3CCN(C5CCN(c6ccc7c(c6)C(=O)N(C6CCC(=O)NC6=O)C7=O)CC5)CC3)C4)n2)c1F (racemic) [Compound 157, Rac-N-(3-{2-tert-butyl-5-[2-({2-[2-(1′-{2-[(3R)-2,6-dioxopiperidin-3-yl]-1,3-dioxo-2,3-dihydro-1H-isoindol-5-yl}-[1,4′-bipiperidin]-4-yl)acetyl]-2-azaspiro[3.3]heptan-6-yl}amino)pyrimidin-4-yl]-1,3-thiazol-4-yl}-2-fluorophenyl)propane-1-sulfonamide]	0.05 to 0.5 µM	30 to 70%	–	–
CCCS(=O)(=O)Nc1cccc(-c2nc(C(C)(C)C)sc2-c2ccnc(Nc3cnn(C4CCN(C(=O)[C@@H]5CCN(c6ccc(C7CCC(=O)NC7=O)cn6)C5)CC4)c3)n2)c1F (mixture of isomers) [Compound 106, N-[3-(2-tert-butyl-5-{2-[(1-{1-[(3R)-1-{5-[(3RS)-2,6-dioxopiperidin-3-yl]pyridin-2-yl}pyrrolidine-3-carbonyl]piperidin-4-yl}-1H-pyrazol-4-yl)amino]pyrimidin-4-yl}-1,3-thiazol-4-yl)-2-fluorophenyl]propane-1-sulfonamide]	0.05 to 0.5 µM	30 to 70%	–	–
CCCS(=O)(=O)Nc1cccc(-c2nc(C3CCC4(CC3)CN(C(=O)CN3CCN(c5ccc6c(c5)C(=O)N(C5CCC(=O)NC5=O)C6=O)CC3)C4)sc2-c2ccnc(N)n2)c1F (racemic) [Compound 230, Rac-N-{3-[5-(2-aminopyrimidin-4-yl)-2-{2-[2-(4-{2-[(3R)-2,6-dioxopiperidin-3-yl]-1,3-dioxo-2,3-dihydro-1H-isoindol-5-yl}piperazin-1-yl)acetyl]-2-azaspiro[3.5]nonan-7-yl}-1,3-thiazol-4-yl]-2-fluorophenyl}propane-1-sulfonamide]	< 0.01 µM	30 to 70%	–	–
CCN(C)S(=O)(=O)Nc1cccc(-c2nc(C(C)(C)C)sc2-c2ccnc(Nc3ccc(N4CCN(C(=O)C5CN(c6ccc(C7CCC(=O)NC7=O)cn6)C5)CC4)cn3)n2)c1F (racemic) [Compound 53, Rac-(3S)-3-[6-(3-{4-[6-({4-[2-tert-butyl-4-(3-{[ethyl(methyl)sulfamoyl]amino}-2-fluorophenyl)-1,3-thiazol-5-yl]pyrimidin-2-yl}amino)pyridin-3-yl]piperazine-1-carbonyl}azetidin-1-yl)pyridin-3-yl]piperidine-2,6-dione]	< 0.01 µM	> 70%	–	–
CCCS(=O)(=O)Nc1cccc(-c2nc(C3CCC4(CC3)CCN(C(=O)C[C@H]3CCN(c5ccc(C6CCC(=O)NC6=O)cc5)C3)CC4)sc2-c2ccnc(N)n2)c1F (mixture of isomers) [Compound 253, N-{3-[5-(2-aminopyrimidin-4-yl)-2-(3-{2-[(3R)-1-{4-[(3RS)-2,6-dioxopiperidin-3-yl]phenyl}pyrrolidin-3-yl]acetyl}-3-azaspiro[5.5]undecan-9-yl)-1,3-thiazol-4-yl]-2-fluorophenyl}propane-1-sulfonamide]	–	–	0.01 to 0.05 µM	30 to 70%
CCCS(=O)(=O)Nc1cccc(-c2nc(C3CCC4(CC3)CN(C(=O)CN3CCC5(CC3)CN(c3ccc6c(c3)C(=O)N(C3CCC(=O)NC3=O)C6=O)C5)C4)sc2-c2ccnc(N)n2)c1F (racemic) [Compound 236, Rac-N-{3-[5-(2-aminopyrimidin-4-yl)-2-{2-[2-(2-{2-[(3R)-2,6-dioxopiperidin-3-yl]-1,3-dioxo-2,3-dihydro-1H-isoindol-5-yl}-2,7-diazaspiro[3.5]nonan-7-yl)acetyl]-2-azaspiro[3.5]nonan-7-yl}-1,3-thiazol-4-yl]-2-fluorophenyl}propane-1-sulfonamide]	< 0.01 µM	> 70%	–	–
CCCS(=O)(=O)Nc1cccc(-c2nc(C(C)(C)C)sc2-c2ccnc(N[C@H]3CC[C@H](N4CCN(C(=O)C5CCN(c6ccc(C7CCC(=O)NC7=O)cn6)CC5)CC4)CC3)n2)c1F (mixture of isomers) [Compound 137, N-{3-[2-tert-butyl-5-(2-{[(1r,4r)-4-[4-(1-{5-[(3RS)-2,6-dioxopiperidin-3-yl]pyridin-2-yl}piperidine-4-carbonyl)piperazin-1-yl]cyclohexyl]amino}pyrimidin-4-yl)-1,3-thiazol-4-yl]-2-fluorophenyl}propane-1-sulfonamide]	0.05 to 0.5 µM	30 to 70%	–	–
CCCS(=O)(=O)Nc1cccc(-c2nc(C(C)(C)C)sc2-c2ccnc(Nc3ccc(C4CCN(C(=O)CN5CCC6(CC5)CN(c5ccc7c(c5)C(=O)N(C5CCC(=O)NC5=O)C7=O)C6)CC4)cc3)n2)c1F (racemic) [Compound 153, Rac-N-[3-(2-tert-butyl-5-{2-[(4-{1-[2-(2-{2-[(3R)-2,6-dioxopiperidin-3-yl]-1,3-dioxo-2,3-dihydro-1H-isoindol-5-yl}-2,7-diazaspiro[3.5]nonan-7-yl)acetyl]piperidin-4-yl}phenyl)amino]pyrimidin-4-yl}-1,3-thiazol-4-yl)-2-fluorophenyl]propane-1-sulfonamide]	0.05 to 0.5 µM	30 to 70%	–	–
CCCS(=O)(=O)Nc1cccc(-c2nc(C(C)(C)C)sc2-c2ccnc(Nc3cccc(C4CCN(C(=O)[C@@H]5CCN(c6ccc(C7CCC(=O)NC7=O)cn6)C5)CC4)c3)n2)c1F (mixture of isomers) [Compound 102, N-[3-(2-tert-butyl-5-{2-[(3-{1-[(3R)-1-{5-[(3RS)-2,6-dioxopiperidin-3-yl]pyridin-2-yl}pyrrolidine-3-carbonyl]piperidin-4-yl}phenyl)amino]pyrimidin-4-yl}-1,3-thiazol-4-yl)-2-fluorophenyl]propane-1-sulfonamide]	0.01 to 0.05 µM	30 to 70%	–	–
